We go through seven compounds from patent publication US5064953A, “Intermediates cephalosporin derivatives” (Mochida Pharmaceutical Co., Ltd., priority 1983, dated 1991).

≈ marks a conversion by molar mass, not a printed value. Where only a bound is given, the exact number is not on record here.

Series [1] is described as follows: LD50 determined in accordance with the Probit method. The settings on record: in vivo, iv. Here is the method: Next, LD50 of representative examples of the compounds of the present invention is shown in Table 3 wherein LD50 was determined in accordance with the Probit method.
The test system of series [2] is Klebsiella pneumoniae IF03317. The experiment in a line: Protection ability against systemic infection. It is filed as in vivo. The note with it: IF03317, iv, 168 h, ICR mice, intraperitoneal infection, compound intravenously 1 hour after infection, survival at 1 week. The method, then:
(§1) Protection ability against systemic infection was determined as follows. An aqueous suspension of test bacteria was intraperitoneally injected into groups of 10 four week old ICR mice. One hour after the infection, test compounds were intravenously administered. The number of surviving mice was counted 1 week after injection to determine the dose at which 50% of the test animals were alive (ED50 :mg/kg).

Series [3] relates to Klebsiella pneumoniae IF03317. The experiment in a line: Antibacterial activity in vitro, agar plate dilution method (MIC). It is filed as cell-based. The settings on record: 10^6 cells/ml, Mueller Hinton agar, 37° C., 20 hours. Here is the method:
(§2) Antibacterial activity in vitro was determined in accordance with the agar plate dilution method. A platinum loop each of test bacteria (10^6 cells/ml), cultured in Mueller Hinton broth, was inoculated on Mueller Hinton agar plates which contained test compounds at various concentrations. After cultivating at 37° C. for 20 hours, the minimum inhibitory concentration (MIC μg/ml) was determined.

The test system of series [4] is Staphylococcus aureus Smith. The description is as above. In kind it is cell-based. The note with it: 10^6 cells/ml, Mueller Hinton agar, 37° C., 20 hours. Here is the method: as §2
The subject of series [5] is Escherichia coli 67. Described as above. In kind it is cell-based. The settings on record: 10^6 cells/ml, Mueller Hinton agar, 37° C., 20 hours. Here is the method:
as §2

Another series concerns Proteus morganii IF03848. Described as above. In kind it is cell-based. The note with it: Morganella morganii, 10^6 cells/ml, Mueller Hinton agar, 37° C., 20 hours. Here is the method:
as §2

In series [6] the test system is Pseudomonas aeruginosa IF03445. Described as above. It is filed as cell-based. The settings on record: 10^6 cells/ml, Mueller Hinton agar, 37° C., 20 hours. The method, then:
as §2

Series [7] has as its system Serratia marcescens IF03759. The series is described as above. It is filed as cell-based. The settings on record: 10^6 cells/ml, Mueller Hinton agar, 37° C., 20 hours. The method, then:
as §2

For series [8], the system named is Staphylococcus 242 (Methicillin-resistant strain). The experiment in a line: Protection ability against systemic infection. It is filed as in vivo. The settings on record: iv, 168 h, ICR mice, intraperitoneal infection, compound intravenously 1 hour after infection, survival at 1 week. Here is the method: as §1
*Methicillin-resistant strain

In series [9] the test system is Escherichia coli 67. As to the kind of experiment: Protection ability against systemic infection. The note with it: Escherichia coli, 67, iv, 168 h; ICR mice, intraperitoneal infection, compound intravenously 1 hour after infection, survival at 1 week. It is filed as in vivo. Here is the method:
as §1

The subject of series [10] is Pseudomonas aeruginosa IF03445. As to the kind of experiment: Protection ability against systemic infection. It is filed as in vivo. The settings on record: IF03445, iv, 168 h, ICR mice, intraperitoneal infection, compound intravenously 1 hour after infection, survival at 1 week. The method, then: as §1

Regarding `Cc1cc(SCC2=C(C(=O)O)N3C(=O)[C@@H](NC(=O)/C(=N\OC(=O)c4ccco4)c4csc(N)n4)[C@H]3SC2)n2nc(C(=O)O)nc2n1` [Compound 9, (6R,7R)-7-[2-(2-amino-4-thiazolyl)-2-[Z-(2-furancarbonyl)oxyimino]acetamido]-3-[(2-carboxy-5-methyl-s-triazolo[1,5-a]pyrimidin-7-yl)thiomethyl]-8-oxo-5-thia-1-azabicyclo[4.2.0]oct-2-ene-2-carboxylic acid], the LD50 in [1] was above 1000 mg/kg. Also, the ED50 in [2] was 7.68 mg/kg; in [8], 2.11 mg/kg. In addition, the MIC is below 0.05 µg/mL in series [3]; 0.39 µg/mL (≈ 0.569 µM) in series [4]; below 0.05 µg/mL with Escherichia coli 67 [5]; 0.2 µg/mL (≈ 0.292 µM) with Proteus morganii IF03848; 100 µg/mL (≈ 146 µM) in series [6]; below 0.05 µg/mL in series [7].

As for `CO/N=C(\C(=O)N[C@@H]1C(=O)N2C(C(=O)O)=C(CSc3cc(C(=O)O)nc4ncnn34)CS[C@H]12)c1csc(N)n1` [Compound 6, (6R,7R)-7-[2-(2-amino-4-thiazolyl)-2-(Z-methoxyimino)acetamido]-3-[(5-carboxy-s-triazolo[1,5-a]pyrimidin-7-yl)thiomethyl]-8-oxo-5-thia-1-azabicyclo [4.2.0]oct-2-ene-2-carboxylic acid], the LD50 in series [1] is above 1000 mg/kg. The results for the ED50 (in series [2]; in the series with Escherichia coli 67 [9]; in series [10]) were 0.1 mg/kg, 0.8 mg/kg and 230 mg/kg, respectively. Moreover, the MIC in series [3] was below 0.05 µg/mL; in series [4], 1.57 µg/mL (≈ 2.65 µM); against Escherichia coli 67 [5], below 0.05 µg/mL; in the series with Proteus morganii IF03848 it was 0.2 µg/mL (≈ 0.338 µM); in series [6], 6.25 µg/mL (≈ 10.6 µM); in series [7], 0.2 µg/mL (≈ 0.338 µM).

`Cc1cc(SCC2=C(C(=O)O)N3C(=O)[C@@H](NC(=O)/C(=N\OC(=O)c4cccs4)c4csc(N)n4)[C@H]3SC2)n2nc(C(=O)O)nc2n1` [Compound 10, (6R,7R)-7-[2-(2-amino-4-thiazolyl)-2-[Z-(2-thiophenecarbonyl)oxyimino]acetamido]-3-[(2-carboxy-5-methyl-s-triazolo[1,5-a]pyrimidin-7-yl)-thiomethyl]-8-oxo-5-thia-1-azabicyclo[4.2.0]-oct-2-ene-2-carboxylic acid] returned an LD50 in series [1] above 1000 mg/kg. Moreover, the minimum inhibitory concentration (MIC) in series [3] is below 0.05 µg/mL; in series [4], 0.39 µg/mL (≈ 0.556 µM); in the series with Escherichia coli 67 [5], 0.1 µg/mL (≈ 0.143 µM); against Proteus morganii IF03848 it was 0.39 µg/mL (≈ 0.556 µM); in [6] it was 50 µg/mL (≈ 71.3 µM); in series [7], 0.1 µg/mL (≈ 0.143 µM). For the same compound, the ED50 in [8] turned out to be 8.01 mg/kg.

As to `CO/N=C(\C(=O)N[C@@H]1C(=O)N2C(C(=O)O)=C(CSc3cc(C)nc4ncnn34)CS[C@H]12)c1csc(N)n1` [Compound 1, (6R,7R)-7-[2-(2-amino-4-thiazolyl)-2-(Z-methoxyimino)acetamido]-3-[(5-methyl-s-triazolo[1,5-a]pyrimidin-7-yl)thiomethyl]-8-oxo-5-thia-1-azabicyclo[4.2.0] oct-2-ene-2-carboxylic acid], the LD50 in [1] was above 1000 mg/kg. Further, the median effective dose (ED50) is 0.1 mg/kg in [2], 0.7 mg/kg in the series on Escherichia coli 67 [9] and 780 mg/kg in series [10]. The MIC in series [3] is below 0.05 µg/mL; in series [4], 1.57 µg/mL (≈ 2.8 µM); with Escherichia coli 67 [5] it was below 0.05 µg/mL; in the series with Proteus morganii IF03848 it was 0.78 µg/mL (≈ 1.39 µM); in series [6], 50 µg/mL (≈ 89 µM); in series [7], 0.2 µg/mL (≈ 0.356 µM).

In turn, `Cc1cc(SCC2=C(C(=O)O)N3C(=O)[C@@H](NC(=O)/C(=N\O)c4csc(N)n4)[C@H]3SC2)n2nc(C(=O)O)nc2n1` [Compound 8, (6R,7R)-7-[2-(2-amino-4-thiazolyl)-2-(Z-hydroxyimino)acetamido]3-[(2-carboxy-5-methyl-s-triazolo[1,5-a]pyrimidin-7-yl)thiomethyl]-8-oxo-5-thia-1-azabicyclo[4.2.0]oct-2-ene-2-carboxylic acid] gave an LD50 in series [1] above 1000 mg/kg. Besides, the ED50 amounted to 7.68 mg/kg in [2] and 3.55 mg/kg in [8]. The MIC was below 0.05 µg/mL in series [3]; 0.78 µg/mL (≈ 1.32 µM) in series [4]; 0.2 µg/mL (≈ 0.338 µM) with Escherichia coli 67 [5]; 0.39 µg/mL (≈ 0.659 µM) with Proteus morganii IF03848; above 100 µg/mL in series [6]; 0.2 µg/mL (≈ 0.338 µM) in [7].

`CO/N=C(\C(=O)N[C@@H]1C(=O)N2C(C(=O)O)=C(CSc3cc(C)nc4nc(C(=O)O)nn34)CS[C@H]12)c1csc(N)n1` [Compound 2, (6R,7R)-7-[2-(2-amino-4-thiazolyl)-2-(Z-methoxyimino)acetamido]-3-[(2-carboxy-5-methyl-s-triazolo[1,5-a]pyrimidin-7-yl)thiomethyl]-8-oxo-5-thia-1-azabicyclo[4.2.0]oct-2-ene-2-carboxylic acid] registered an LD50 in series [1] above 1000 mg/kg. Also, the ED50 was found to be 0.1 mg/kg in series [2], 0.8 mg/kg with Escherichia coli 67 [9] and 360 mg/kg in [10]. Moreover, the MIC was below 0.05 µg/mL in [3]; 1.57 µg/mL (≈ 2.59 µM) in series [4]; below 0.05 µg/mL against Escherichia coli 67 [5]; 0.2 µg/mL (≈ 0.33 µM) in the series with Proteus morganii IF03848; 12.5 µg/mL (≈ 20.6 µM) in [6]; below 0.05 µg/mL in [7].

`Cc1nnc(SCC2=C(C(=O)O)N3C(=O)[C@@H](NC(=O)Cn4cnnn4)[C@H]3SC2)s1` [CEZ, reference compound] came in with an ED50 in [8] of 74 mg/kg.

As a reminder, the LD50 is the dose expected to kill half of the subjects tested. As a reminder, the ED50 is the dose that gives a 50% effect, or the effect in half of the subjects. High values mean a need for a large dose, low ones an effect at a small dose. As usually defined, the MIC is the lowest concentration that inhibits growth of the organism. Higher therefore signals a need for much substance.
